From US9650405B2, “Modified sophorolipids as oil solubilizing agents” (Polytechnic Institute of New York University, priority 2010, dated 2017)
Values belong to the compound of their own block, whether it stands above or below them.

Legend:
[1] = Emulsification of paraffin and rapeseed oil by transalkylidenation MSLs; assay type: physicochemical; conditions: for change in emulsions during a 6-week aging period: 1 weight % surfactant, water:paraffin oil 1:1 (v/v), FIG. 22
Experimental: Mixtures of oil (paraffin or rapeseed) and water, in a 1:1 volume ratio, were prepared. MSL compounds 39, 40, and 41 at 1 weight % relative to water were each assessed as emulsifiers. Each mixture was agitated for 5 min using a homogenizer. […] This is in contrast to the studies above where sophorolipid esters and amides consisting of one hydrophobic arm formed oil-in-water mixtures. For compound 43 that has relatively more hydrophobic character than MSL compounds 39. 40 and 41, paraffin oil and water (1:1 volume ratio) were combined and MSL compound 43 (2 weight % to water) was then added. The mixture was agitated by a homogenizer for 5 minutes. […] The emulsion was stable during the 3 weeks it was monitored (FIG. 24). […] The cloudy parts are emulsified water, and the continuous phase is the oil. […] Condition: 15% (v/v) of water in rapeseeds oil, 1 weight % (relative to water) of compound 40 were mixed and stirred using a homogenizer for 5 minutes (scale bar: 100 μm).

[2] = Emulsion droplet size distribution, Coulter LS 230 analyzer; assay type: physicochemical; conditions: paraffin oil-to-water 7:3 v/v, 25° C.
Experimental: Emulsified oil droplet size (average and standard deviation) was measured after suitable dilution of the emulsion phase using a Coulter LS 230 analyzer. […] Relative to natural and lactonic SL, selected MSLs show improved properties as emulsifiers on paraffin oil.
After being aged for 3-months, emulsified oil droplet size (average and standard deviation) was measured after suitable dilution of the emulsion phase using a Coulter LS 230 analyzer and the results are listed in Table 5. […] However, increasing the surfactant concentration from 1 to 2% did result in substantially smaller emulsion-phase droplet sizes. […] This is evidence that MSL's can stabilize oil phases greatly decreasing their tendency to undergo coalescence. […] It follows that the results of 3-month aging studies support the utility of selected MSLs for formation and stabilization of oil-in-water emulsions of paraffin oil phases. One skilled in the art would expect that the ability of these MSLs to stabilize paraffin oil phases teaches that they would also stabilize oil phases of similar structure.

[3] = Crude oil clearing/displacement activity; conditions: 20 μL of 1 mg/mL solution
Experimental: Oil cleaning assays were performed using Louisiana Crude, Arabian Light Crude, and Prudhoe Bay Crude as the oil phase. In one study, the oil clearing/displacement activity of MSLs were assessed using a crude oil layer on top of sea water in order to simulate oil spill type conditions. Sea water (20 mL) was transferred to plastic Petri dishes and 20 μL of a crude oil type was added on top of the water to create an oil layer. Subsequently, a 20 μL aliquot of MSL solution (1 mg/mL) was added dropwise to the top of the oil layer. The instantaneous formation of an oil clearing zone as well as the diameter of the clearing zone was determined as a function of the dispersant used. […] Furthermore, the oil displacement activity of SL-ethyl ester and SL-butyl ester was slightly higher than Triton-X-100 for Arabian Light crude.

[4] = Emulsion stability based on phase separation; assay type: physicochemical
Experimental: The emulsion was obtained by homogenizing the oil and water mixture and was allowed to settle at room temperature for 24 hours. […] Then, this mixture was homogenized at 13,000 rpm for 2 minutes. Thereafter, the resulting emulsion was left unagitated at 25° C. for 24 hours. Surfactants which give a larger emulsion phase are denoted as having higher emulsion effectiveness (Process Safety and Environment protection, 2005, 83, 38-46). […] Thus, unexpectedly, that longer alkyl chains, at least up to butyl and hexyl, provided improved interfacial stability at the paraffin oil/water interface. […] Apparently, ester bonds of SL-esters are less disruptive to organization at the oil water interface than amide bonds of SL-amides. […] The acidic SL (3) gave an 8% emulsion layer, much lower than the MSL examples given herein. Similarly, the natural SL (1) mixture gave a 10% emulsion layer. This performance is also far below that of SL-butyl amide (24), hexyl amide (25), butyl ester (8) and hexyl ester (16).
After homogenized at 13,000 rpm for 2 minutes, the emulsions were kept at room temperature and separation of the respective oil, emulsion and water layers was recorded for up to 1 month.

[5] = Lemon oil solubilization, sonication, droplet size by dynamic light scattering; assay type: physicochemical; conditions: for average droplet sizes after one month: lemon oil emulsions; for Emulsion Droplet Size / Emulsion Droplet Size, bottom emulsion layer / Emulsion Droplet Size, top emulsion layer: 1 weight-%
Experimental: MSL's used in this example are SL-hexyl ester (16), SL-octyl ester SL (17), and SL-dodecyl ester (18). To test the MSL capacity for lemon oil solubilization, the volume ratio of water to lemon oil, the concentration of surfactant, and the homogenization time (using a sonicator as the means of homogenization) were varied. Concentration of surfactant is calculated on a w/w basis relative to the mass of water being used. To form emulsions, the MSL or other surfactant is first dissolved in the water, oil is added to the solution, and finally the contents of the water/surfactant+oil system is sonicated. Subsequently, the emulsion is allowed to settle for 24 hours at 25° C. before measurements or visual observations are made.
To evaluate the stability of lemon oil solubilization, photographs of emulsions were recorded daily (after the initial 24 hours). Visual observations consisted of assessing solution clarity, extent of creaming and whether oil separation occurs. After selected time periods measurement of emulsion droplet size was performed by dynamic light scattering, which gives an average droplet size in the solution. […] If the emulsion had creamed (separated into two discreet emulsion layers) the average droplet size for each emulsion layer was determined. The results of this study are listed in Table 6, where the first number represents average droplet size in the top emulsion layer and the second represents the average droplet size in the bottom emulsion layer. […] A better performing emulsifier for this study is defined as functioning to form emulsions with smaller average particle size after the aging period.

[6] = Crude oil emulsification activity (turbidity at 610 nm); conditions: emulsifier 1 mg/mL
Experimental: Emulsification activity was assessed using Louisiana Crude, Arabian Light Crude, and Prudhoe Bay Crude as the oil phase. A 2 mL solution with emulsifier concentration of 1 mg/mL was prepared. A crude oil (10 mg) was added to the emulsifier aqueous solution, the mixture was vortexed for one minute and the emulsified mixture was allowed to stand for 20 minutes. Emulsification activity was determined by measuring turbidity of the emulsion mixture in a spectrophotometer at 610 nm. The results obtained using SL-ethyl ester, SL-butyl ester, the natural sophorolipid mixture and Triton X-100 as emulsifiers are expressed as D610 and are listed in Table 8. […] Furthermore, a remarkable improvement in emulsification activity was obtained for SL-butyl ester relative to the natural sophorolipid mixture. These comparative results for emulsification of Louisiana Crude, Arabian Light Crude, and Prudhoe Bay Crude oil phase could not be anticipated by one skilled in the art.

[7] = paraffin oil and water 1:1 volume ratio, 2 weight % to water
[8] = oil (paraffin or rapeseed) and water 1:1 volume ratio, 1 weight % relative to water
[9] = Arabian Light Crude on sea water
[10] = lemon oil/water 1/99, sonication 60 sec, 1 Week
[11] = lemon oil/water 1/99, sonication 60 sec, 5 Weeks
[12] = lemon oil/water 5/95, sonication 60 sec, 1 Week
[13] = lemon oil/water 5/95, sonication 60 sec, 5 Weeks
[14] = lemon oil/water 1/99, sonication 120 sec, 1 Week

Compound: CCOC(=O)/C=C/CCCCCCCC(=O)OC1C(COC(C)=O)OC(OC2C(OC(C)CCCCCC/C=C/C(=O)OCC)OC(COC(C)=O)C(O)C2O)C(O)C1O (stereo not drawn) [Compound 40]
emulsion stability after 6 weeks ([1]; 15% (v/v) of water in rapeseeds oil, 1 weight % relative to water): emulsion remained stable
emulsion type [1, 8]: water-in-oil emulsions
time the emulsions were stable (monitored period) [1, 8]: ≥ 6 weeks

Compound: CCCCOC(=O)/C=C/CCCCCCCC(=O)OC1C(COC(C)=O)OC(OC2C(OC(C)CCCCCC/C=C/C(=O)OCCCC)OC(COC(C)=O)C(O)C2O)C(O)C1O (stereo not drawn) [Compound 41]
emulsion type [1, 8]: water-in-oil emulsions
time the emulsions were stable (monitored period) [1, 8]: ≥ 6 weeks

Compound: COC(=O)/C=C/CCCCCCCC(=O)OC1C(COC(C)=O)OC(OC2C(OC(C)CCCCCC/C=C/C(=O)OC)OC(COC(C)=O)C(O)C2O)C(O)C1O (stereo not drawn) [Compound 39]
change in emulsions during a 6-week aging period [1]: no substantial change
emulsion type [1, 8]: water-in-oil emulsions
time the emulsions were stable (monitored period) [1, 8]: ≥ 6 weeks

Compound: CCCCCCCCCCCCOC(=O)CCCCCCCC=CCCCCCCC(C)OC1OC(CO)C(O)C(O)C1OC1OC(CO)C(O)C(O)C1O (stereo not drawn) [Compound 18, SL-dodecyl ester]
average droplet sizes after one month [5]: below 1 μm
Emulsion Droplet Size [5, 10]: 238 nm
Emulsion Droplet Size [5, 11]: 277 nm
Emulsion Droplet Size, bottom emulsion layer [5, 12]: 327 nm
Emulsion Droplet Size, top emulsion layer [5, 12]: 389 nm
Emulsion Droplet Size, bottom emulsion layer [5, 13]: 208 nm
Emulsion Droplet Size, top emulsion layer [5, 13]: 551 nm

Compound: CCCCCCCCOC(=O)CCCCCCCC=CCCCCCCC(C)OC1OC(CO)C(O)C(O)C1OC1OC(CO)C(O)C(O)C1O (stereo not drawn) [Compound 17, SL-octyl ester]
average droplet sizes after one month [5]: below 1 μm
Emulsion Droplet Size [5, 10]: 92 nm
Emulsion Droplet Size ([5]; lemon oil/water 1/99, sonication 60 sec, 2 Days): 52 nm
Emulsion Droplet Size [5, 11]: 183 nm
Emulsion Droplet Size [5, 12]: 179 nm
Emulsion Droplet Size ([5]; lemon oil/water 5/95, sonication 60 sec, 2 Days): 167 nm
Emulsion Droplet Size [5, 13]: 325 nm

Now from value to compound, other results behind:

change in emulsions during a 6-week aging period [1]: no substantial change
emulsion type [1, 7]: water-in-oil emulsion
time the emulsion was stable (monitored period) [1, 7]: ≥ 3 weeks
Compound: CCCCCCCCCCCCOC(=O)/C=C/CCCCCCCC(=O)OC1C(COC(C)=O)OC(OC2C(OC(C)CCCCCC/C=C/C(=O)OCCCCCCCCCCCC)OC(COC(C)=O)C(O)C2O)C(O)C1O (stereo not drawn) [Compound 43]

Average droplet size ([2]; 0.5 weight %, 24 hours): 2.3 ± 0.2 μm
Average droplet size ([2]; 0.5 weight %, aged 3-months): 3.1 ± 0.1 μm
Average droplet size ([2]; 1 weight %, 24 hours): 2.1 ± 0.1 μm
Average droplet size ([2]; 1 weight %, aged 3-months): 2.7 ± 0.1 μm
Average droplet size ([2]; 2 weight %, 24 hours): 1.6 ± 0.2 μm
Average droplet size ([2]; 2 weight %, aged 3-months): 2.0 ± 0.1 μm
Oil displacement activity (diameter of the clearing zone) [3, 9]: 0.65 ± 0.21 cm
Oil displacement activity (diameter of the clearing zone) ([3]; Louisiana Crude on sea water): 0.5 ± 0.14 cm
Oil displacement activity (diameter of the clearing zone) ([3]; Prudhoe Bay Crude on sea water): 1.2 ± 0.42 cm
emulsion layer, start ([4]; oil/water 7/3, 2%-by-weight, start of aging): 90%
emulsion layer percentage ([4]; paraffin oil/water 5/5, 2%-by-weight emulsifier, after 24 hours at 25° C.): 70%
Compound: CCCCCCCCCCCCOS(=O)(=O)[O-].[Na+] [SDS, Sodium dodecyl sulfate, reference compound]

Oil displacement activity (diameter of the clearing zone) [3, 9]: 6.05 ± 0.07 cm
Oil displacement activity (diameter of the clearing zone) ([3]; Louisiana Crude on sea water): 5.5 ± 0.21 cm
Oil displacement activity (diameter of the clearing zone) ([3]; Prudhoe Bay Crude on sea water): 7.8 ± 0.07 cm
Compound: Triton X-100 [reference compound]
Emulsification activity (D610) ([6]; Arabian Crude): 0.17
Emulsification activity (D610) ([6]; Louisiana Crude): 0.28
Emulsification activity (D610) ([6]; Prudhoe Crude): 0.49

Emulsion Droplet Size [5, 14]: 379 nm
Compound: Rhamnolipid [reference compound]

Emulsion Droplet Size ([5]; lemon oil/water 1/99, sonication 120 sec, 1 Month): 233 nm
Emulsion Droplet Size [5, 14]: 173 nm
Compound: TWEEN ® 60 [reference compound]
